Results published in ChEMBL document CHEMBL5131467, “Multivalent peptide dendrimers inhibit the fusion of viral-cellular membranes and the cellular NF-κB signaling pathway” (Eur J Med Chem, 2022).
Active and inactive are the calls of the source. The rule behind the calls is not given here. Where a SMILES comes first, the peptide text is derived from it. Bridges are numbered along the chain shown (N, C = ends). Roman numbers before positions name the chains, in order. Side-chain parts run from the residue outwards. The star is where a group is joined. Fmoc = O=C(OCC1c2ccccc2-c2ccccc21)*

Experiments:
[1] = test system: RAW264.7; experiment: Anti-inflammatory activity against LPS induced mouse RAW264.7 cells assessed as suppression of NF kappa B expression level at 1.5 ug/ml by luciferase reporter assay; format: functional, cell-based; conditions: dose 1.5 µg/ml
[2] = test system: Influenza A virus; experiment: Antiviral activity against Influenza A virus (A/Puerto Rico/8/1934(H1N1)) infected in MDCK cells assessed as reduction in virus induced cytopathic effect pre-treated with virus followed by cell infection for 1 hr by MTT assay; format: functional, organism-based
[3] = test system: RAW264.7; experiment: Anti-inflammatory activity against mouse RAW264.7 cells assessed as reduction in Influenza A virus (A/Puerto Rico/8/1934(H1N1)) induced TNF alpha level at 1 ug/ml by ELISA method; format: functional; conditions: dose 1 µg/ml
[4] = test system: Influenza A virus; experiment: Antiviral activity against Influenza A virus (A/Puerto Rico/8/1934(H1N1)) infected in MDCK cells assessed as reduction in virus induced cytopathic effect after infection incubated for 1 hr by MTT assay; format: functional, organism-based
[5] = test system: RAW264.7; experiment: Anti-inflammatory activity against Influenza A virus (A/Puerto Rico/8/1934(H1N1)) s induced mouse RAW264.7 cells assessed as suppression of NF kappa B expression level 1.5 ug/ml by luciferase reporter assay; format: functional, cell-based; conditions: dose 1.5 µg/ml
[6] = test system: Mus musculus; experiment: Antiviral activity against Kunming mouse infected with Influenza A virus (A/Puerto Rico/8/1934(H1N1)) assessed as recovery in body weight at 1.25 mg/kg, ip administered twice a day with a time interval of 12 hrs for 4 days measured from day 8 upto 15 days (reference value: 17.58 g); format: functional; conditions: time 15 day
[7] = test system: RAW264.7; experiment: Anti-inflammatory activity against mouse RAW264.7 cells assessed as reduction in LPS induced TNF alpha level at 1 ug/ml by qRT-PCR analysis; format: functional, cell-based; conditions: dose 1.0 µg/ml
[8] = test system: Influenza A virus; experiment: Antiviral activity against Influenza A virus (A/Puerto Rico/8/1934(H1N1)) infected in MDCK cells assessed as reduction in M1 mRNA level at 1 ug/ml measured after 24 hrs post infection by qRT-PCR analysis; format: functional, organism-based; conditions: dose 1.0 µg/ml
[9] = AUC in Kunming mouse at 10 mg/kg, ip by HPLC analysis; format: ADME, organism-based; parameters: dose 10 mg/kg, route ip; conditions: in vivo
[10] = test system: Influenza A virus; experiment: Antiviral activity against Influenza A virus (A/Puerto Rico/8/1934(H1N1)) infected in MDCK cells assessed as reduction in viral nucleoprotein expression level at 2 ug/ml pretreated with compound measured after 24 hrs post infection by indirect immunofluorescence assay; format: functional, organism-based; conditions: dose 2.0 µg/ml
[11] = Cytotoxicity against MDCK cells incubated for 1 hr by MTT assay; format: toxicity, cell-based, Canis lupus familiaris; conditions: dog
[12] = test system: Mus musculus; experiment: Antiviral activity against Kunming mouse infected with Influenza A virus (A/Puerto Rico/8/1934(H1N1)) assessed as survival rate at 5 mg/kg, ip administered twice a day with a time interval of 12 hrs for 4 days relative to control; format: functional; conditions: 96 h, time 4 day
[13] = test system: Mus musculus; experiment: Antiviral activity against Kunming mouse infected with Influenza A virus (A/Puerto Rico/8/1934(H1N1)) assessed as reduction in viral titer in lung homogenate at 5 mg/kg, ip administered twice a day for 3 days after 24 hrs of viral infection; format: functional, organism-based; conditions: time 3.0 day
[14] = test system: Mus musculus; experiment: Antiviral activity against Kunming mouse infected with Influenza A virus (A/Puerto Rico/8/1934(H1N1)) assessed as survival rate at 5 mg/kg, ip administered once a day for 5 days relative to control; format: functional; conditions: 120 h, time 5 day
[15] = test system: Influenza A virus; experiment: Antiviral activity against Influenza A virus (A/Puerto Rico/8/1934(H1N1)) infected in MDCK cells after treatment incubated for 1 hr by MTT assay; format: functional, organism-based
[16] = test system: RAW264.7; experiment: Anti-inflammatory activity against mouse RAW264.7 cells assessed as reduction in influenza A virus induced TNF alpha level at 1 ug/ml by qRT- PCR; format: functional, cell-based; conditions: dose 1.0 µg/ml
[17] = test system: Mus musculus; experiment: Antiviral activity against Kunming mouse infected with Influenza A virus (A/Puerto Rico/8/1934(H1N1)) assessed as reduction in viral titer in lung homogenate at 1.25 mg/kg, ip administered twice a day for 3 days after 24 hrs of viral infection; format: functional, organism-based; conditions: time 3.0 day
[18] = test system: Influenza A virus; experiment: Antiviral activity against Influenza A virus A/Aichi/2/68(H3N2) infected in MDCK cells incubated for 1 hr by MTT assay; format: functional, organism-based
[19] = test system: Mus musculus; experiment: Antiviral activity against Kunming mouse infected with Influenza A virus (A/Puerto Rico/8/1934(H1N1)) assessed as survival rate at 1.25 mg/kg, ip administered twice a day with a time interval of 12 hrs for 4 days relative to control; format: functional; conditions: 96 h, time 4 day
[20] = test system: Influenza A virus; experiment: Antiviral activity against Influenza A virus (A/Puerto Rico/8/1934(H1N1)) infected in MDCK cells assessed as reduction in viral nucleoprotein expression level at 2 ug/ml during infection measured after 24 hrs post infection by indirect immunofluorescence assay; format: functional, organism-based; conditions: dose 2.0 µg/ml
[21] = test system: Influenza A virus; experiment: Induction of morphological changes in Influenza A Puerto Rico/8/1934/H1N1 assessed as increase in broken edge of the virus incubated for 30 mins by transmission electron microscopic analysis; format: functional, organism-based; conditions: dose 10-50 µg/ml, DDE = dose-dependent effect
[22] = test system: Influenza B virus; experiment: Antiviral activity against Influenza B virus 699[…] clinical isolate infected in MDCK cells incubated for 1 hr by MTT assay; format: functional, organism-based
[23] = test system: RAW264.7; experiment: Anti-inflammatory activity against mouse RAW264.7 cells assessed as reduction in LPS induced IL-1 beta level at 1 ug/ml by qRT-PCR analysis; format: functional, cell-based; conditions: dose 1.0 µg/ml
[24] = Half life in Kunming mouse at 10 mg/kg, ip by HPLC analysis; format: ADME, organism-based; conditions: in vivo
[25] = test system: Influenza A virus; experiment: Antiviral activity against Influenza A virus (A/Puerto Rico/8/1934(H1N1)) infected in MDCK cells assessed as reduction in virus induced cytopathic effect pretreated with compound incubated for 1 hrs by MTT assay; format: functional, organism-based
[26] = test system: RAW264.7; experiment: Anti-inflammatory activity against mouse RAW264.7 cells assessed as reduction in influenza A virus induced IL-1 beta level at 1 ug/ml by qRT- PCR; format: functional, cell-based; conditions: dose 1.0 µg/ml
[27] = test system: Mus musculus; experiment: Antiviral activity against Kunming mouse infected with Influenza A virus (A/Puerto Rico/8/1934(H1N1)) assessed as recovery in body weight at 5 mg/kg, ip administered twice a day with a time interval of 12 hrs for 4 days measured from day 8 upto 15 days (Rvb =18.02 g); format: functional; conditions: time 15 day
[28] = test system: RAW264.7; experiment: Anti-inflammatory activity against mouse RAW264.7 cells assessed as reduction in LPS induced TNF alpha level at 5 ug/ml by ELISA method; format: functional; conditions: dose 5 µg/ml
[29] = test system: Influenza A virus; experiment: Antiviral activity against Influenza A virus (A/Puerto Rico/8/1934(H1N1)) infected in MDCK cells assessed as reduction in HA mRNA level at 1 ug/ml measured after 24 hrs post infection by qRT-PCR analysis; format: functional, organism-based; conditions: dose 1.0 µg/ml
[30] = test system: Erythrocyte; experiment: Hemolytic activity in chicken erythrocytes at up to 50 uM pre-treated with virus for 30 mins followed by addition of cell measured after 30 mins by microplate reader assay; format: toxicity, cell-based, Gallus gallus; conditions: 0.5 h
[31] = test system: RAW264.7; experiment: Cytotoxicity against mouse RAW264.7 cells assessed as cell viability at lesser than 100 ug/ml by CCK-8 assay; format: toxicity, cell-based; conditions: dose < 100 µg/ml
[32] = test system: RAW264.7; experiment: Anti-inflammatory activity against mouse RAW264.7 cells assessed as reduction in influenza A virus induced IL-6 level at 1 ug/ml by qRT- PCR; format: functional, cell-based; conditions: dose 1.0 µg/ml
[33] = Cmax in Kunming mouse at 10 mg/kg, ip by HPLC analysis; format: ADME, organism-based; parameters: dose 10 mg/kg, route ip; conditions: in vivo

NCCCC[C@H](NC(=O)OCC1c2ccccc2-c2ccccc21)C(=O)N[C@@H](CCCCN)C(=O)N[C@@H](Cc1c[nH]c2ccccc12)C(=O)N[C@@H](CCCCN)C(=O)NCCCC[C@H](NC(=O)[C@H](CCCCN)NC(=O)[C@H](Cc1c[nH]c2ccccc12)NC(=O)[C@H](CCCCN)NC(=O)[C@H](CCCCN)NC(=O)OCC1c2ccccc2-c2ccccc21)C(=O)NCCCC[C@H](NC(=O)[C@H](CCCCNC(=O)[C@H](CCCCN)NC(=O)[C@H](Cc1c[nH]c2ccccc12)NC(=O)[C@H](CCCCN)NC(=O)[C@H](CCCCN)NC(=O)OCC1c2ccccc2-c2ccccc21)NC(=O)[C@H](CCCCN)NC(=O)[C@H](Cc1c[nH]c2ccccc12)NC(=O)[C@H](CCCCN)NC(=O)[C@H](CCCCN)NC(=O)OCC1c2ccccc2-c2ccccc21)C(=O)NCC(=O)O (I: Fmoc-KKWKK([Lys-Trp-Lys-Lys-Fmoc])KG-OH / II: Fmoc-KKWKK([Lys-Trp-Lys-Lys-Fmoc]); amide I:6-II:C)
Activity [1]: Active
IC50 [2]: 280 nM
Activity [3]: 203 pg/mL
IC50 [4]: 11600 nM
Activity [5]: Active
Activity [6]: 25.84 g
Activity [7]: Active
Activity [8]: Active
AUC [9]: 11900 ng·h/mL
Activity [10]: Active
CC50 at 1 h [11]: 41900 nM
survival at 5 mg/kg [12]: 33%
Activity [13]: Active
survival at 5 mg/kg [14]: 20%
IC50 [15]: 320 nM
Activity [16]: Active
Activity [17]: Active
IC50 [18]: 240 nM
survival at 1.25 mg/kg [19]: 20%
Activity [20]: Active
Activity [21]: Dde
IC50 [22]: 320 nM
Activity [23]: Active
half-life [24]: 2.88 h
IC50 [25]: 240 nM
Activity [26]: Active
Activity [27]: 26.99 g
Activity [28]: 280.5 pg/mL
Activity [29]: Active
Activity [30]: Toxic
Activity [31]: Non-Toxic
Activity [32]: Active
Cmax [33]: 5020 ng/mL
